Test results as given in patent publication US20110082037A1, “Adjuvant Compositions” (COGNIS IP MANAGEMENT GMBH, priority 2008, published 2011).
Counter-ions that a name gives are not always drawn.

What was measured:
[1] = test system: Winter wheat (Triticum aestivum); experiment: Greenhouse experiment: influence of adjuvants on glyphosate efficacy on wheat (fresh weight 21 DAT); format: in vivo; conditions: adjuvant 0.25% w/v
Method: (§1) Greenhouse experiments were conducted to investigate the potency of the mixtures of alkoxylated oligoglycosides and alkoxylated primary alcohols as adjuvants for glyphosate. Winter wheat (Triticum aestivum) was used as a model for difficult-to-wet grasses and black night-shade (Solanum nigrum) was used as a model plant with an easy-to-wet, but difficult-to-penetrate, leaf surface. Both were grown in a growth chamber under 14 hours of light, at 18/12(±0.5)° C. (day/night) temperature, and in 70/80(±5)% (day/night) relative humidity. Light was provided by high-pressure mercury lamps and fluorescent tubes to give 70 W/m^2 (PAR) at leaf level. The plants were grown in 11 cm diameter plastic pots filled with a mixture of sand and humic potting soil (1:2 by volume). The pots were placed on sub-irrigation matting which was wetted daily with half-strength nutrient solution. After emergence, the wheat seedlings were thinned to six plants/pot for the efficacy experiments. Black nightshade seedlings were thinned to one plant/pot. Black nightshade and wheat were treated at the three- and the four-leaf stage, respectively. The fresh weights of the plants were measured 14 days after treatment (DAT) for black nightshade and 21 DAT for wheat. The glyphosate solutions were applied with an air-pressured laboratory track sprayer with 1.2-mm nozzles fitted with a perforated (0.6 mm) whirling pin and delivering 200 L/ha at 303 kPa. These were added to the unformulated monoisopropylamine salt of glyphosate [MON 8717 (glyphosate IPA salt 648 gai/litre=2.84 M without adjuvant)] at a concentration of 0.25% (w/v). Demineralised water was used as the carrier.
(§2) Based on previous work, these rates were 77.8 gae/hectare (equivalent to 2.3 mM at 200 litres/hectare) on wheat and 30.4 gae/hectare (equivalent to 0.9 mM) on black nightshade. The experiments were conducted as a randomised complete block with four replicates. Two separate experiments were conducted for each of the two plant species. The data was subjected to analysis of variance using the Genstat statistical package (Release 6.1 from Rothamsted Experimental Station). The performance of the products on both species was expressed as a percentage of the FW of untreated plants. Examples 1 to 8 are according to the invention, examples C1 to C12 serve as comparison.

[2] = test system: black nightshade SOLNI (Solanum Nigrum); experiment: Greenhouse experiment: influence of adjuvants on glyphosate efficacy on black nightshade (fresh weight 14 DAT); format: in vivo; conditions: adjuvant 0.25% w/v
Method: as §1, §2

[3] = average of trials 1 and 2, glyphosate 2.3 mM
[4] = glyphosate 2.3 mM (77.8 g a.e./ha at 200 L/ha)
[5] = 0.6 mM glyphosate (20.3 g a.e./ha at 200 L/ha)
[6] = 0.9 mM glyphosate (30.4 g a.e./ha at 200 L/ha)

SMILES: O=C(O)CNCP(=O)(O)O [Gly, monoisopropylamine salt of glyphosate]
- Average % (FW as percentage of the FW of untreated plants) [1, 3]: 78.3%
- Average g FW [1, 3]: 18.15 g
- Trial 1 g FW [1, 4]: 22.33 g
- Trial 2 g FW [1, 4]: 13.97 g
- Trial 2 % (FW as percentage of the FW of untreated plants) [2, 5]: 84.5%
- Trial 2 g FW [2, 5]: 14.66 g
- Trial 1 % (FW as percentage of the FW of untreated plants) [2, 6]: 35.1%
- Trial 1 g FW [2, 6]: 5.59 g
